{
  "source": "patent US4908138A",
  "about": "(priority 1987, dated 1990)",
  "key": {"[1]": {"assay": "Reduction of the solubility of synthetic apatite after treatment", "details": "pH 5, consumption of lactic acid; comparison with untreated apatite", "method": "The hydroxyacetonitrile diphosphonic acid of the invention effectively reduces the solubility of apatite by absorbing it on the tartar surface. To determine this property, the solubility of synthetic apatite after treatment with the hydroxyacetonitrile diphosphonic acid is determined by comparison with untreated apatite. To this end, a suspension of apatite is kept at pH 5 by neutralizing the hydroxyl ions passing into solution with lactic acid and determining the consumption of acid required for this purpose."}, "[2]": {"assay": "Hampshire test (calcium complexing power)", "type": "physicochemical", "details": "pH 11; titrated with 0.2 molar calcium chloride until it remained cloudy; used as tetrasodium salt, converted for the pure diphosphonic acid", "method": "The calcium complexing power was determined by the Hampshire test in which the hydroxyacetonitrile diphosphonic acid, to which Na2 CO3 has been added, was titrated with a 0.2 molar calcium chloride solution at pH 11 until it remained cloudy. Hydroxyacetonitrile diphosphonic acid was used in the form of its tetrasodium salt and the measured values obtained were converted for the pure diphosphonic acid."}, "[3]": {"assay": "Inhibition of conversion of calcium hydrogen phosphate into hydroxyl apatite (protons released)", "details": "protons released in a calcium phosphate solution supersaturated at 60° C.", "method": "A crucial step in the formation of tartar is the conversion of calcium hydrogen phosphate into hydroxyl apatite. […] To this end, the degree of inhibition of this conversion was measured by determining the protons released in a calcium phosphate solution supersaturated at 60° C. in accordance with the following equation: […]"}},
  "data": [
    {"smiles": "CC(O)(P(=O)(O)O)P(=O)(O)O", "values": [
      {"measurement": "Reduction of the solubility of apatite", "setting": "[1]", "value": 53, "unit": "%"}
    ]},
    {"smiles": "N#CC(O)(P(=O)(O)O)P(=O)(O)O", "note": "[Hydroxyacetonitrile diphosphonic acid, hydroxyacetonitrile diphosphonic acid]", "values": [
      {"measurement": "calcium complexing power", "setting": "[2]", "value": 520, "unit": "mg CaCO3 /g acid"},
      {"measurement": "degree of inhibition of conversion of calcium hydrogen phosphate into hydroxyl apatite", "setting": "[3]", "value": 91, "unit": "%"},
      {"measurement": "Reduction of the solubility of apatite", "setting": "[1]", "value": 65, "unit": "%"}
    ]},
    {"smiles": "O=P(O)(O)C(O)P(=O)(O)O", "note": "[Hydroxymethane diphosphonic acid]", "values": [
      {"measurement": "degree of inhibition of conversion of calcium hydrogen phosphate into hydroxyl apatite", "setting": "[3]", "value": 81, "unit": "%"}
    ]},
    {"smiles": "O=P(O)(O)C(O)P(=O)(O)O", "note": "[drawing 8]", "values": [
      {"measurement": "calcium complexing power", "setting": "[2]", "value": 130, "unit": "mg CaCO3 /g acid"}
    ]}
  ]
}
